This is an account of results in ChEMBL document CHEMBL1201862, “PubChem BioAssay data set” (2004).

Assay in all cases: NCI tumour cell line growth inhibition, 48 h
In assay [1] the test system is DMS-114.
In assay [2] the test system is XF498.
The subject of assay [3] is HOP-18.
Assay [4] has as its system DMS-273.
The subject of assay [5] is M19-MEL.
Assay [6] has as its system SNB-78.
In assay [7] the test system is LXFL 529.
In assay [8] the test system is RXF 631.
For assay [9], the system named is BT-549.

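Each compound was tested at five concentrations against cells in 96-well plates for 48 hours. Abbreviation: GI50, concentration required for 50% inhibition of growth.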 Calls of active or inactive are those of the source. Cut-off read from the data, not from the text of the source: active = GI50 up to about 1.1 µM and inactive = higher.

Consider `O=C1CCCCN1`, for which the GI50 in assay [1] is > 1120 µM (inactive); in assay [2] it was 89.3 µM (inactive); in assay [3] it was 232 µM (inactive); in [4], > 1120 µM (inactive); in [5], > 403 µM (inactive); in [6], > 1120 µM (inactive).

Take `O=NN1C(c2ccccc2)CNC(=O)CC1c1ccccc1` (stereo not drawn): the GI50 is 22.7 µM (inactive) in [1]; > 100 µM (inactive) in assay [3]; 27.4 µM (inactive) in assay [4]; 50.1 µM (inactive) in assay [5]; > 91.4 µM (inactive) in assay [6].

With `CC(=O)c1cccc(NC(=O)C(=O)C(C(=O)NN)c2ccccc2)c1` (stereo not drawn), the GI50 in [1] is > 100 µM (inactive); in assay [2], > 100 µM (inactive); in assay [3], 16.5 µM (inactive); in [7] it was > 100 µM (inactive); in assay [4] it was > 100 µM (inactive); in [8] it was > 100 µM (inactive). Further, the GI50 in assay [5] is > 100 µM (inactive).

As to `COc1ccc(C[C@H](N)C(=O)N2C[C@H](CO)C[C@H](n3cnc4c(N(C)C)ncnc43)C2)cc1`, the GI50 was > 100 µM (inactive) in [1]; 45.7 µM (inactive) in [3]; > 100 µM (inactive) in assay [7]; > 100 µM (inactive) in assay [4]; > 100 µM (inactive) in [5].

As to `O=c1cc(-c2nc3ccccc3[nH]2)[nH]c2nc(-c3nc4ccccc4[nH]3)cc(-c3ccc(Cl)cc3)c12`, the GI50 in assay [9] was 35.9 µM (inactive).

Consider `COC1C(=[N+]=[N-])C(=O)NC(=O)N1C1OC(COC(c2ccccc2)(c2ccccc2)c2ccccc2)C(O)C1O` (stereo not drawn), for which the GI50 in [3] is 21.1 µM (inactive); in assay [7] it was 17.6 µM (inactive); in assay [5], 19.4 µM (inactive); in assay [6] it was 18 µM (inactive).

Regarding `CCOC(=O)C(C(C)=O)C1CC=CC1` (stereo not drawn), the GI50 in [1], in assay [2], in [7], in assay [4], in assay [8] and in assay [6] was > 100 µM (inactive) each time.

Take `CCCN(CCC)CCc1ccc(OC2=CCN(C)CC2)cc1`: the GI50 in assay [9] is 29.8 µM (inactive).

With `O=C1Cc2c(-c3ccccc3)cc(-c3ccccc3)nc2-c2ccccc2N1`, in [9], the GI50 was 6.01 µM (inactive).

For `O=c1c(C(c2ccccn2)c2c(O)oc3cc(O)ccc3c2=O)c(O)oc2cc(O)ccc12`, the GI50 in assay [9] was > 100 µM (inactive).

For `CC(=O)O[C@H]1CC[C@]2(C=O)[C@H]3CC[C@]4(C)[C@@H](C5=CC(=O)OC5)CC[C@]4(O)[C@@H]3CC[C@]2(O)C1` [STROPHANTHIDIN ACETATE], in [9], the GI50 is 0.144 µM (active).
